The record followed here is patent US20230382925A1, “MODULATORS OF CYSTIC FIBROSIS TRANSMEMBRANE CONDUCTANCE REGULATOR” (VERTEX PHARMACEUTICALS INCORPORATED, priority 2020, published 2023).

In this test the target is CFTR (Homo sapiens, UniProt P13569). Put plainly: Membrane Potential Dye, Enteroid Assay B. The format is cell-based. In a few lines: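 Human intestinal enteroid cells exposed to compound 18-24 h at 37 °C, then loaded with methyl oxonol membrane-potential dye plus CaCC blockers. Chloride transport triggered in chloride-free buffer with 10 μM forskolin, 100 μM IBMX, 300 nM Compound III; fluorescence read 15 min, expressed as % of triple-corrector/potentiator combination control.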
Chain of CFTR (P13569 with tags, fused parts or gaps DEL508-508): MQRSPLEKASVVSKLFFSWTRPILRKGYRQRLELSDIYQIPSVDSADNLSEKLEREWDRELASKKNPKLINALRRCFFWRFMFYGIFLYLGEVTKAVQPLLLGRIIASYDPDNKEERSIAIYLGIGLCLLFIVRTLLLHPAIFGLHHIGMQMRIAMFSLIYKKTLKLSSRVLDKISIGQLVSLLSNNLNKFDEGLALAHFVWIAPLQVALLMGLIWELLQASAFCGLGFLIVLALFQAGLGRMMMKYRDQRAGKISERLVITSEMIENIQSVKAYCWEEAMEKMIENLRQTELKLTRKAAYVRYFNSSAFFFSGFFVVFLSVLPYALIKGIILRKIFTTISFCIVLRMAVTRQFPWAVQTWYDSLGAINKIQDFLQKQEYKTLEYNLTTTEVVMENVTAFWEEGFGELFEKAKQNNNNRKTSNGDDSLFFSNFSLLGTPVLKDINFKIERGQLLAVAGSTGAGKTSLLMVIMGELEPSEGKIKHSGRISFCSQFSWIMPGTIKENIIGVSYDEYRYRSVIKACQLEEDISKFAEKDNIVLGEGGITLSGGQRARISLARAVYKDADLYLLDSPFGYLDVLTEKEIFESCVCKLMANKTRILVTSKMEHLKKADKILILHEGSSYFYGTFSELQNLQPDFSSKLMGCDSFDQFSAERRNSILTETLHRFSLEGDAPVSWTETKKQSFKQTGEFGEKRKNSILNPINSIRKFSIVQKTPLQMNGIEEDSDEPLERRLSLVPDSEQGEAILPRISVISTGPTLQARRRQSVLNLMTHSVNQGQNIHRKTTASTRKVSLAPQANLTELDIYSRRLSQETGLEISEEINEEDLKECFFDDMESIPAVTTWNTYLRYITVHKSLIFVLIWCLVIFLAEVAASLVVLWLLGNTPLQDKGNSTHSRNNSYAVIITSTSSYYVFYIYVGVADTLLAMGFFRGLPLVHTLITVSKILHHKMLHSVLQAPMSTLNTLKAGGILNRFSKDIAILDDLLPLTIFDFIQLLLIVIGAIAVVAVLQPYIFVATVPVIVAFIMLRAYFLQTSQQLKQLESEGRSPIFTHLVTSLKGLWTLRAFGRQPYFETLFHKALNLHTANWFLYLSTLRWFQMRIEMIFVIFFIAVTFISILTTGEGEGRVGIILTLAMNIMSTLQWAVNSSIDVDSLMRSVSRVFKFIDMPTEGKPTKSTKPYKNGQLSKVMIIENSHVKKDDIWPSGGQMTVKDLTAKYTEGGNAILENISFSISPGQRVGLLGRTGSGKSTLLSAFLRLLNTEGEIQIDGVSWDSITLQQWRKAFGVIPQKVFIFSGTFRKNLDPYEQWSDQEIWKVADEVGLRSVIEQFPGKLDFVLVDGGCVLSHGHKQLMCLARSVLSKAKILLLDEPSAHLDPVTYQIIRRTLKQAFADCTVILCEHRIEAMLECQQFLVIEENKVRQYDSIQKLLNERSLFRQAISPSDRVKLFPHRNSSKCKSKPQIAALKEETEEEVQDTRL

The mark [1] stands for this setting: Table 10, read-out: Ent. B EC50.

Like-named read-outs stand apart in the source and are kept apart here.

In the case of `Cc1cccc(C)c1-c1cc2nc(n1)NS(=O)(=O)c1cccc(c1)C(=O)N([C@H]1C[C@@]3(C[C@@H](N)C3)C1)[C@H](CC1(C(F)(F)F)CC1)CO2` (stereo partly drawn) [Compound 81, (R)-6-((2R,4r,6R)-6-Aminospiro[3.3]heptan-2-yl)-1^6-(2,6-dimethylphenyl)-7-((1-(trifluoromethyl)cyclopropyl)methyl)-9-oxa-3-thia-2,6-diaza-1(2,4)-pyrimidina-4(1,3)-benzenacyclononaphan-5-one 3,3-dioxide], where the note is “Table 9”, the “Ent. B Max Activity (%)” value was “+++ (+++ is >60%)”. In addition, the 50% effective concentration (EC50) (as a rule, the concentration giving half of the maximal effect) (Table 9, read-out: Ent. B EC50) was under 1000 nM.
For `CN[C@H]1C[C@@]2(C1)C[C@H](N1C(=O)c3cccc(c3)S(=O)(=O)Nc3nc(cc(-c4c(C)cccc4C)n3)OC[C@H]1CC1(C(F)(F)F)CC1)C2` (stereo partly shown) [Compound 267], in that order: “+++ (+++ is >60%)” and under 1000 nM.
For `Cc1cccc(C)c1-c1cc2nc(n1)NS(=O)(=O)c1cccc(c1)C(=O)N(C1CC(NC(=O)C(C)C)C1)[C@H](CC(C)(C)C)CO2` (single isomer, unassigned) [Compound 444], in that order: “+++ (+++ is >60%)” and under 1000 nM.
For the compound `Cc1cccc(C)c1-c1cc2nc(n1)NS(=O)(=O)c1cccc(n1)C(=O)N([C@H]1C[C@@H](C(C)(C)O)C1)[C@H](CC(C)(C)C)CO2` [Compound 410], the “Ent. B Max Activity (%)” value (Table 10) is reported as “+++ (+++ is >60%)”. Further, the EC50 under setting [1] was under 1000 nM.
On to `Cc1cccc(C)c1-c1cc2nc(n1)NS(=O)(=O)c1cccc(c1)C(=O)N(C1CC(N3CCS(=O)(=O)CC3)C1)[C@H](CC(C)C)CO2` (stereo partly drawn) [Compound 72, (11R)-6-(2,6-dimethylphenyl)-12-[3-(1,1-dioxo-1,4-thiazinan-4-yl)cyclobutyl]-11-isobutyl-2,2-dioxo-9-oxa-2λ^6-thia-3,5,12,19-tetrazatricyclo[12.3.1.14,8]nonadeca-1(18),4(19),5,7,14,16-hexaen-13-one], for which the “Ent. B Max Activity (%)” value (Table 9) is listed as “+++ (+++ is >60%)”. For the same compound, for the setting “Table 9, read-out: Ent. B EC50”, the EC50 was under 1000 nM.
For `COCCN(C)C1CC(N2C(=O)c3cccc(c3)S(=O)(=O)Nc3nc(cc(-c4c(C)cccc4C)n3)OC[C@H]2CC(C)C)C1` (stereo partly shown) [Compound 382], in that order: “+++ (+++ is >60%)” and under 1000 nM.
For `Cc1cccc(C)c1-c1cc2nc(n1)NS(=O)(=O)c1cccc(c1)C(=O)N(C1CC(N[C@H]3CC[C@@H](O)CC3)C1)[C@H](CC(C)C)CO2` (stereo partly shown) [Compound 371], in that order: “+++ (+++ is >60%)” and 1000 to 3000 nM.
In the case of `CCC(=O)N(C)C1CC(N2C(=O)c3cccc(c3)S(=O)(=O)Nc3nc(cc(-c4c(C)cccc4C)n3)OC[C@H]2CC(C)(C)C)C1` (single isomer, unassigned) [Compound 240], the “Ent. B Max Activity (%)” value (Table 10) is given as “++ (++ is 30-60%)”. In addition, the EC50 under setting [1] was under 1000 nM.
Turning to `Cc1cccc(C)c1-c1cc2nc(n1)NS(=O)(=O)c1cccc(n1)C(=O)N([C@H]1C[C@@H](C(C)(C)O)C1)[C@H](CC(C)(C)C)CO2` (stereo in doubt) [Compound 411], the “Ent. B Max Activity (%)” value (Table 10) is reported as “+++ (+++ is >60%)”. Besides, the EC50 under setting [1] was under 1000 nM.
As for `Cc1cccc(C)c1-c1cc2nc(n1)NS(=O)(=O)c1cccc(c1)C(=O)N(C1CC(NC(=O)C(C)C)C1)[C@H](CC(C)(C)C)CO2` (stereo in doubt) [Compound 445], under “Table 9”, the “Ent. B Max Activity (%)” value is “+++ (+++ is >60%)”. The EC50 (Table 9, read-out: Ent. B EC50) was under 1000 nM.
On to `Cc1cccc(C)c1-c1cc2nc(n1)NS(=O)(=O)c1cccc(c1)C(=O)N(C1CCN(C(=O)OC(C)C)C1)[C@H](CC(C)C)CO2` (single isomer, unassigned) [Compound 39], for which the “Ent. B Max Activity (%)” value is “+++ (+++ is >60%)”. Also, the EC50 (read-out: Ent. B EC50) was under 1000 nM.
In the case of `Cc1cccc(C)c1-c1cc2nc(n1)NS(=O)(=O)c1cccc(c1)C(=O)N(C1CC3(CC(N)C3)C1)[C@H](CC(C)(C)C)CO2` (single isomer, unassigned) [Compound 118], the “Ent. B Max Activity (%)” value is on record as “+++ (+++ is >60%)”. Further, the EC50 (read-out: Ent. B EC50) was under 1000 nM.
Consider `[H][C@]1(N2C(=O)c3cccc(c3)S(=O)(=O)Nc3nc(cc(-c4c(C)cccc4C)n3)OC[C@H]2CC2(C(F)(F)F)CC2)C[C@@]2(C[C@H](N(C)C)C2)C1` (stereo partly shown) [Compound 297], for which the “Ent. B Max Activity (%)” value is recorded as “+++ (+++ is >60%)”. For the same compound, under “read-out: Ent. B EC50”, the EC50 is under 1000 nM.
For `Cc1cccc(C)c1-c1cc2nc(n1)NS(=O)(=O)c1cccc(c1)C(=O)N([C@H]1C[C@@H](N(C)C)C1)[C@H](CC(C)C)CO2` [Compound 302], in that order: “+++ (+++ is >60%)” and under 1000 nM.
`CCC(=O)N1C[C@H]2C[C@@H](C1)[C@H]2N1C(=O)c2cccc(c2)S(=O)(=O)Nc2nc(cc(-c3c(C)cccc3C)n2)OC[C@H]1CC(C)(C)C` [Compound 231]: the “Ent. B Max Activity (%)” value (Table 10) is listed as “++ (++ is 30-60%)”. Further, where the note is “read-out: Ent. B EC50, Table 10”, the EC50 is under 1000 nM.
Consider `COCCN1CCC2(CC1)CC(N1C(=O)c3cccc(c3)S(=O)(=O)Nc3nc(cc(-c4c(C)cccc4C)n3)OC[C@H]1CC(C)(C)C(F)(F)F)C2` [Compound 190, (11R)-6-(2,6-dimethylphenyl)-12-[7-(2-methoxyethyl)-7-azaspiro[3.5]nonan-2-yl]-11-(3,3,3-trifluoro-2,2-dimethylpropyl)-9-oxa-2λ^6-thia-3,5,12,19-tetraazatricyclo[12.3.1.14,8]nonadeca-1(17),4(19),5,7,14(18),15-hexaene-2,2,13-trione], for which, for the setting “Table 9”, the “Ent. B Max Activity (%)” value is recorded as “+++ (+++ is >60%)”. For the same compound, the half-maximal effective concentration (EC50) (Table 9, read-out: Ent. B EC50) is under 1000 nM.
For `Cc1cccc(C)c1-c1cc2nc(n1)NS(=O)(=O)c1cccc(c1)C(=O)N(C1CC3(CCN(CC(C)(C)C)CC3)C1)[C@H](CC(C)C)CO2` [Compound 279], in that order: “+++ (+++ is >60%)” and under 1000 nM.
On to `[H][C@]1(N2C(=O)c3cccc(c3)S(=O)(=O)Nc3nc(cc(-c4c(C)cccc4C)n3)OC[C@H]2CC(C)(C)C)C[C@@]2(C[C@H](NC(=O)OC3CC3)C2)C1` (stereo in doubt) [Compound 356], for which the “Ent. B Max Activity (%)” value (Table 10) is “+++ (+++ is >60%)”. For the same compound, under setting [1], the EC50 was under 1000 nM.
`Cc1cccc(C)c1-c1cc2nc(n1)NS(=O)(=O)c1cccc(c1)C(=O)N(C1CC(N[C@H]3CC[C@H](O)CC3)C1)[C@H](CC(C)C)CO2` (stereo in doubt) [Compound 372]: the “Ent. B Max Activity (%)” value (Table 9) was “+++ (+++ is >60%)”. The EC50 (Table 9, read-out: Ent. B EC50) is under 1000 nM.
On to `CCC(=O)NC1(C)CC(N2C(=O)c3cccc(c3)S(=O)(=O)Nc3nc(cc(-c4c(C)cccc4C)n3)OC[C@H]2CC(C)(C)C)C1` (stereo partly shown) [Compound 242], for which the “Ent. B Max Activity (%)” value (Table 10) was “++ (++ is 30-60%)”. Also, the EC50 under setting [1] was under 1000 nM.
For `COCCNC(=O)O[C@H]1C[C@H](N2C(=O)c3cccc(c3)S(=O)(=O)Nc3nc(cc(-c4c(C)cccc4C)n3)OC[C@H]2CC(C)C)C1` (stereo in doubt) [Compound 364], in that order: “+++ (+++ is >60%)” and under 1000 nM.
Consider `COCC(=O)N1CCC2(CC1)CC(N1C(=O)c3cccc(c3)S(=O)(=O)Nc3nc(cc(-c4c(C)cccc4C)n3)OC[C@H]1CC(C)C)C2` [Compound 459], for which the “Ent. B Max Activity (%)” value (Table 9) is given as “+++ (+++ is >60%)”. For the same compound, the concentration for a half-maximal effect (EC50) (Table 9, read-out: Ent. B EC50) is under 1000 nM.
As to `Cc1cccc(C)c1-c1cc2nc(n1)NS(=O)(=O)c1cccc(c1)C(=O)N([C@H]1C[C@@H](N3C[C@@H](C)O[C@@H](C)C3)C1)[C@H](CC(C)C)CO2` [Compound 380], under “Table 9”, the “Ent. B Max Activity (%)” value was “+++ (+++ is >60%)”. Besides, for the setting “Table 9, read-out: Ent. B EC50”, the EC50 is under 1000 nM.
